In the experiment the target is Immunoglobulin A1 protease autotransporter (Haemophilus influenzae (strain ATCC 51907 / DSM 11121 / KW20 / Rd), UniProt P44969). Put plainly: Inhibition of Haemophilus influenzae Rd IGA1 protease expressed in Escherichia coli BL21(DE3) preincubated for 1 hr followed by substrate addition and measured after 2 hrs by sandwich ELISA.
Sequence of Immunoglobulin A1 protease autotransporter (P44969 26-1014 limits assumed): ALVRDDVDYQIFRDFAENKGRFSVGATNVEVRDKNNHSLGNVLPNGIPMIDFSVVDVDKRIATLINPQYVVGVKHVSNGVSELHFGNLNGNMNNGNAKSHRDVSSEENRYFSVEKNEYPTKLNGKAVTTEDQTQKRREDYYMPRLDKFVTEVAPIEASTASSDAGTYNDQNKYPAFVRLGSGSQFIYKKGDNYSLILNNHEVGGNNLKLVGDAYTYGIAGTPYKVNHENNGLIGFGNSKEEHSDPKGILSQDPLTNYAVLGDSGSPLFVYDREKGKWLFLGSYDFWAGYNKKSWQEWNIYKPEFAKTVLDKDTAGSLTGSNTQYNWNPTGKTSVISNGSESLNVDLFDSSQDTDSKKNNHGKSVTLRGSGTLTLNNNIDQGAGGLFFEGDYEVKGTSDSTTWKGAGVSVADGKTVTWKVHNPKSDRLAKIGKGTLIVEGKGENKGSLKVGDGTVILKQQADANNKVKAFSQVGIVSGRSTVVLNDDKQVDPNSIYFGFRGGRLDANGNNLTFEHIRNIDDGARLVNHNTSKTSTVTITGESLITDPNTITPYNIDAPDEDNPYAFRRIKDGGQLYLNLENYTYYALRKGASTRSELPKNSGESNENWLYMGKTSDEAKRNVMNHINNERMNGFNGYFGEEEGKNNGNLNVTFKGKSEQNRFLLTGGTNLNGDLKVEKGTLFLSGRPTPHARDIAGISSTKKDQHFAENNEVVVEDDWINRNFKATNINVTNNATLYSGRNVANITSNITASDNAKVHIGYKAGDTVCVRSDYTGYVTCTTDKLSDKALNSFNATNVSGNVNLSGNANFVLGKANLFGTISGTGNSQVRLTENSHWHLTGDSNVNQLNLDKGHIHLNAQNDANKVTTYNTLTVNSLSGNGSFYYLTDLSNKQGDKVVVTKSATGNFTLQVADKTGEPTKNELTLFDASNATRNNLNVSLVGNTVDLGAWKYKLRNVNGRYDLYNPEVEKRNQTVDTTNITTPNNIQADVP

In the case of `O=C(Oc1nsnc1N1CCOCC1)c1ccccc1`, the IC50 is 5.9 µM.
For `O=C(Oc1nsnc1N1CCCCC1)C1CCOCC1` the value was 3.7 µM.

These data come from ChEMBL document CHEMBL4725243, “High-Throughput Screening for the Discovery of Enzyme Inhibitors” (J Med Chem, 2020).
